# Assay results from US9211278B2, “Composition containing arylnaphthalene lignan derivative for preventing and/or treating dementia” (KOREA INSTITUTE OF SCIENCE AND TECHNOLOGY, priority 2012, dated 2015).
# Key:
# [1] = system: alpha-secretase product (sAPPα); assay: Alpha-secretase product (sAPPα) production, Western blotting; type: cell-based, human; conditions: 8 hours, concentrations of FIG. 5
# Method: The test result confirmed that Justicidin A (C1) obtained in Example 2 and 5-methoxyJusticidin A increased alpha-secretase product (sAPPα). Specifically, the produced amount of sAPPα was measured by treating the cultured cell line (the HeLa cell line transfected with the amyloid precursor protein (APP) driven from human) with Justicidin A (S62-C1) or 5-methoxyJusticitdin A (S62-C2) at a concentration of FIG. 5, culturing it for 8 hours, and measuring the produced amount of sAPPα according to the Western blotting. The negative control was the group with no treatment of Justicidin A or 5-methoxyJusticidin A.
# PC12 cell = assay: Cell viability assay, Cell counting kit-8; type: cell-based; conditions: 125 nM to 1000 nM, 24 hrs
# Method: Firstly, cell viability assay was performed for identifying whether Justicidin A had toxicity to normal brain cell line. Cell viability assay performed using Cell counting kit-8 (CCK-8, WST-8, Kamimashikigun, Kumamoto, Japan). More particularly, 1.5×10^4 cells of PC12 (Cell No. RCB0009, RIKEN BRC Cell Bank, Tsukuba, Ibaraki, Japan) were seeded to each well of 96-well plate, and incubated for 24 hrs. Then various concentrations of Justicidin A were treated for 24 hrs, and measured by Cell counting kit-8.
# [2] = system: APP targeted to plasma membrane (maAPP); assay: Targeting of mature APP (maAPP) to plasma membrane, biotinylation method; type: cell-based, human
# Method: It is reported that APP made in ER, then passed through Golgi, targeted to plasma membrane, in the maAPP form. APP hydrolysis was performed by alpha-secretase, sAPPα secretion was increased, and Aβ secretion, made by beta secretase, was decreased. Relative amount of maAPP increased by Justicidin A, amount of APP targeted to plasma membrane was measured by biotinylation method.
# Hela cell line, transfected with the amyloid precursor protein (APP), was incubated in DMEM (Cat. #11995, Gibco, USA). The cell line was received from Prof. Tae-Wan Kim at Department of Pathology, Columbia University Medical Center, New York, N.Y. 10032, USA. 1.5×10^6 cells seeded in 60 mm dish, incubated for 24 hours. […] Avidin (S 1638, Sigma), specifically interacted to biotin, added to pellet (30 ul, 4° C., incubated for 30 min) for precipitation biotinylated protein, and precipitated protein was performed electrophoresis, then measured change of APP protein, exposed protein of outside of cell, by western blotting with APP antibody (1:2000 diluted, A8717, Sigma).
# When Justicidin A was treated for 1 hour, the biotinylated APP was increased as the concentration increased 0.03, 0.1, and 0.25 uM, the and the molecular weight was the same as O-glycosylated APP (maAPP) (FIG. 7a). The result of western blotting was measured by band intensity to show the result in FIG. 7b. […]
# [3] = system: PC12 cell treated with Aβ25-35; assay: Protection against cellular toxicity induced by Aβ25-35; type: cell-based; conditions: 30 uM Aβ25-35, 48 hrs
# Method: To identify the protecting effect against cellular toxicity induced by Aβ, PC12 cell was treated with Justicidin A and Aβ25-35 and measured cell viability. More particularly, 1.5×10^4 cells of PC12 were seeded to each well of 96-well plate, and incubated for 24 hrs. Then, the plate was treated with various concentrations of Justicidin A 30 min, treated 30 uM Aβ25-35, and incubated for 48 hrs. Cell viability was measured by Cell counting kit-8 to show the result FIG. 12b.
# APP endocytosis = APP endocytosis rate (confocal microscopy, reversible biotinylation); type: cell-based, human
# Method: To test the endocytosis rate of App, 5×10^5 cells of HeLa cell line transfected with amyloid precursor protein (APP) as the substantially same method as Experimental Examples 6 and 7, seeded on poly-D-lysine coated cover glass and incubated for 24 hours. Then, 1 uM Justicidin A and APP antibody (1:100 diluted, SIG-39320, Covance) treated for 45 min at 4° C., washed out to remove free APP antibodies with culture fluid at three times. The cells were incubated at 37° C., starting endocytosis temperature, for 10, 30, and 60 min, and fixed by 4% paraformaldehyde for 15 min. Then, the cells were permeabilized by 0.1% triton X-100 for 5 min, and APP was marked by secondary fluorescent-labeled antibody (1:200 diluted, A11001, Invitrogen).
# The change in the location of APP at various times was measured by confocal microscopy (LSM510, Zeiss, Germany) at 488 nm. […] (0 min). The endocytosis started at 37° C. […]
# APP fluorescent intensity remained in plasma membrane compared to APP fluorescent intensity in plasma membrane at 0 min was measured.
# For quantitative measurement of APP endocytosis rate, a reversible biotinylation method was used. […]
# The result of western blotting was measured by band intensity to show the amount of intracellular APP (FIG. 10b; % internalization) with respect to total maAPP on the cell membrane (FIG. 10a).
smiles,measurement,setting,value
COc1cc2c(OC)c3c(c(-c4ccc5c(c4)OCO5)c2cc1OC)C(=O)OC3 [Justicidin A],formation of alpha-secretase product (sAPPα),[1],activated the formation of alpha-secretase product (sAPPα)
same,toxicity to PC12 cell,PC12 cell,has no toxicity to PC12 cell
same,"amount of maAPP in the cell membrane, by treatment time","[2]; 0.1 uM, 10 min to 240 min",the amount of maAPP in the cell membrane as the treatment time increased
same,"amount of maAPP (biotinylated APP) in plasma membrane, by concentration","[2]; 0.03, 0.1, and 0.25 uM, 1 hour",amount of maAPP increased in plasma membrane in a concentration-dependent manner
same,toxicity induced by Aβ25-35,[3],reduced the toxicity induced by Aβ25-35 in a concentration-dependent manner
same,APP endocytosis (reversible biotinylation),"APP endocytosis; 1 uM pre-treated, 5, 10, 30 min at 37° C.",showed reduced endocytosis of APP
same,APP endocytosis (APP fluorescent intensity remaining in plasma membrane),"APP endocytosis; 1 uM pre-treatment, confocal microscopy, 10, 30, 60 min at 37° C.",APP endocytosis was delayed
